“Also recorded” adds a separate entry of the source.
Test system: patients affected by endometriosis, IV stage (deep endometriosis, adenomyosis and ovarian endometriosis)
Assay: Clinical study on patients affected by endometriosis treated with Luteolin
Type: in vivo, human
Description: Clinical Study on Patients Affected by Endometriosis Treated with […]
A composition in powder for oral administration containing Luteolin (62.5 mg of extract of shells of peanuts standardized to 80% Luteolin) equal to 50 mg was prepared.
18 patients affected by endometriosis, IV stage, were identified, all of them with deep endometriosis, adenomyosis and ovarian endometriosis (endometriosis ovarian cysts larger than 3 cm), the disease diagnosis was placed with diagnostic protocol including vaginal and rectal explorations for the diagnosis of deep endometriosis, Nuclear magnetic resonance of pelvis with examination of resonance parameters for the diagnosis of adenomyosis, thickness of the neck-body junction area (JZ) of the uterus larger than 12 mm, exclusion criterion for adenomyosis thickness smaller than 8 mm, examination of the myometrium structure, examination of the myometrium thicknesses both of front and rear wall, hematic examinations comprising the marker Ca 125, the dosage of 17B-estradiol and of testosterone.
The first group constituted by 18 patients ingested 2 capsules per day, every twelve hours, for 45 days of the composition containing Luteolin 50 mg.
For the disease evaluation:
The dosage of 17B-estradiol
The dosage of testosterone
The Rectal examination for deep endometriosis
The rectal examination for deep endometriosis
The nuclear magnetic resonance of pelvis with contrast medium (gadolinium) were performed.
INCLUSION CRITERIA for experimentation
Not ingestion of pain-relieving drugs
Absence of anti-inflammatory drugs
Positive Vaginal examination
Positive rectal examination

[1] = 21st day of treatment, basal JZ>12 mm
[2] = study group, 21st day of treatment, basal VAS>=7

O=c1cc(-c2ccc(O)c(O)c2)oc2cc(O)cc(O)c12 [Luteolin, 2-(3,4-dihydroxyphenyl)-,5,7dihydroxy-4-chromenone]
Serum dosage of testosterone average value of the sample (21st day of treatment, basal 0.13 ng/ml): 0.15 ng/mL | RMN Adenomyosis JZ between 12 and 8 mm [1]: 5% | RMN Adenomyosis JZ<8 mm [1]: 95% | adenomyosis JZ (Luteolin 50 mg oral twice a day, 18 patients): < 12 mm | disease parameters (deep endometriosis, adenomyosis, ovarian endometriosis) (Luteolin 50 mg oral twice a day, 18 patients, IV stage): quick reduction; also recorded: quick decrease | average maximum diameter of the ovarian cysts (Luteolin 50 mg oral twice a day, 18 patients, from cm 5.34): 2.14 cm | side effects / voluntary suspensions of the treatment (Luteolin 50 mg oral twice a day, 45 days): No side effects | antigen marker Ca 125 (in words) (Luteolin 50 mg twice a day, all treated patients): reduced; also recorded: negativization | RMN ovarian cysts weighted average (maximum diameter) (after 21 days of therapy, basal cm 5.34): 2.14 | regression of the symptoms (after five days from the beginning of administration, constant for 45 days): almost disappeared | 17 Beta-Estradiol dosage average value of the sample (serum, 21st day of period, 21st day of treatment, basal 199 pg/ml): 196 pg/mL | Ca 125 dosage: average value (serum, 21st day of treatment, basal 72.6 UI/ml): 32.1 UI/ml | Headache (study group, 21st day of treatment, Luteolin 50 mg oral twice a day, basal 21%): 11% | Cystitis (study group, 21st day of treatment, Luteolin 50 mg oral twice a day, basal 23%): 5% | Chronic pelvic pain VAS<3 [2]: 100 | Dysmenorrhea VAS<3 [2]: 100 | Dyspareunia VAS<=3 [2]: 100

— patent publication US20210046042A1, “SUBSTANCES AND COMPOSITIONS FOR THE USE IN THE TREATMENT OF ENDOMETRIOSIS AND ENDOMETRIOSIS ASSOCIATED SYMPTOMS” (SISTEMI SALUTE S.R.L., priority 2017, published 2021)
